Experimental data: patent publication US11161912B2, “Heparanase-neutralizing monoclonal antibodies” (Technion Research & Development Foundation Limited, priority 2015, dated 2021)

Tests used:
SU-DHL-6 lymphoma cells = experiment: Subcutaneous SU-DHL-6 lymphoma xenograft in mice; format: in vivo, human; conditions: SU-DHL-6, PG545 IP 20 mg/kg once weekly from one day after inoculation
Protocol: The indicated lymphoma cells (5×10^6) were implanted subcutaneously in NOD/SCID mice (n=7) and mice were administered with PG545 (IP, 20 mg/kg, once weekly, starting one day after cell inoculation), or control vehicle (PBS; Con). At termination, tumors were removed, weighted and embedded in paraffin for histological and immunohistochemical analyses. Mice were similarly inoculated with the indicated lymphoma cells and were treated with the indicated concentration of PG545 (mg/kg once a week; FIG. 1C) or were treated with PG545 (20 mg/kg once a week) once the tumors became palpable (FIG. 1D). Shown are average (±SE) tumor weight (gr.).

Raji-luciferase cells = experiment: Raji-luciferase lymphoma, tail vein inoculation, bone marrow growth by IVIS imaging; format: in vivo, human; conditions: PG545 20 mg/kg once a week
Protocol: Tumorigenicity. Luciferase-labelled CAG myeloma (5×10^6) or Raji lymphoma (1×10^6) cells were injected into the tail vein of NOD/SCID mice (n=5). Mice were treated with PG545 (20 mg/kg, once weekly), mAb 9E8 (600 μg/mouse) every other day starting one day following cell inoculation and tumor growth was examined by IVIS imaging. At termination, mice were sacrificed, the backbones were excised, fixed in formalin and following de-calcification with 10% EDTA solution were embedded in paraffin and subjected to histological and immunohistochemical analyses essentially as described (Weissmann et al, 2016, Proc Natl Acad Sci USA 113:704-709). Dose of 25-30 mg/kg (i.e., 500-600 μg mAb/mouse) is typical in cancer restraining experiments (Van Looy T, et al. 2015, Transl Oncol 8(2):112-118).
IVIS imaging. Bioluminescent imaging of the luciferase-expressing tumors was performed with a highly sensitive, cooled charge coupled device (CCD) camera mounted in a light-tight specimen box (IVIS; Xenogen Corp., Waltham, Mass.). Briefly, mice were injected intraperitoneally with D-luciferin substrate at 150 mg/kg, anesthetized and placed onto a stage inside the light-tight camera box, with continuous exposure to isoflurane (EZAnesthesia, Palmer, Pa.). Light emitted from the bioluminescent cells was detected by the IVIS camera system with images quantified for tumor burden using a log-scale color range set at 5×10^4 to 1×10^7 and measurement of total photon counts per second (PPS) using Living Image software (Xenogen) (Weissmann et al, 2016, Proc Natl Acad Sci USA 113:704-709).
FIG. 4A. Raji-luciferase cells (1×10^6) were injected into the tail vein of NOD/SCID mice (n=5). Mice were treated with PG545 (20 mg/kg once a week) starting one day after cell inoculation and IVIS imaging was applied to quantify tumor load. […] NOD/SCID mice (n=5) were inoculated (iv) with Raji-luciferase cells and mice were treated with mAb 9E8 (600 μg/mouse every other day) (FIG. 4C) and tumor growth was evaluated by IVIS imaging (left panels). Quantification of luciferase signals is shown graphically in the right lower panel.

Daudi lymphoma cells = experiment: Subcutaneous Daudi lymphoma xenograft in NOD/SCID mice; format: in vivo, human; conditions: PG545 IP 20 mg/kg once weekly from one day after inoculation
Protocol: (§1) Lymphoma cells were also inoculated subcutaneously at the right flank of 6-weeks-old NOD/SCID mice (human cell lines) or C57BL/6 mice (E1-4 mouse lymphoma cells) (n=7). Mice were treated with heparanase inhibitors (PG545; SST0001) or neutralizing antibodies and xenografts size was determined by externally measuring the tumors in 2 dimensions using a caliper. At the end of the experiment, mice were sacrificed; tumor xenografts were removed, weighed and fixed for histological and immunohistochemical analyses (Weissmann et al, 2016, Proc Natl Acad Sci USA 113:704-709). […]
(§2) A. Specimens of human follicular (FIG. 1A, left panel) and diffuse (FIG. 1A, right panel) B-cell lymphomas were subjected for immunostaining applying anti-heparanase antibody. […] Lysates of Raji cells and extracts of tumor xenografts produced by Raji cells were applied onto dishes coated with sulfate-labelled ECM and heparanase enzymatic activity was determined as described (Vlodaysky I, et al. 1999, Nature Med 5(7):793-802). […] Extracts of control (Con) and PG545-treated tumor xenografts produced by Raji cells were applied onto dishes coated with sulfate labelled ECM and heparanase activity was determined as above (lower panel).

[1] = test system: human lymphoma cell lines; experiment: Subcutaneous human lymphoma xenografts, dose response and treatment of palpable tumors (cell lines only 'indicated'); format: in vivo
Protocol: as §1, §2

Ramos lymphoma cells = experiment: Subcutaneous Ramos lymphoma xenograft in NOD/SCID mice; format: in vivo, human; conditions: PG545 IP 20 mg/kg once weekly from one day after inoculation
Protocol: as §1, §2

[2] = test system: E1-4 mouse lymphoma cells; experiment: Subcutaneous E1-4 mouse lymphoma tumors; format: in vivo; conditions: E1-4 cells lacking heparanase activity
Protocol: (§3) Lymphoma cells were also inoculated subcutaneously at the right flank of 6-weeks-old NOD/SCID mice (human cell lines) or C57BL/6 mice (E1-4 mouse lymphoma cells) (n=7). Mice were treated with heparanase inhibitors (PG545; SST0001) or neutralizing antibodies and xenografts size was determined by externally measuring the tumors in 2 dimensions using a caliper. At the end of the experiment, mice were sacrificed; tumor xenografts were removed, weighed and fixed for histological and immunohistochemical analyses (Weissmann et al, 2016, Proc Natl Acad Sci USA 113:704-709). ESb mouse T-lymphoma cells (5×10^5) were similarly inoculated subcutaneously into SCID mice and spontaneous metastasis to the liver (Vlodaysky et al., 1983, Cancer Res 43:2704-2711) was examined after 3 weeks of treatment with PG545 or the neutralizing mAb, as described above. All animal experiments were approved by the Animal Care Committee of the Technion, Haifa, Israel.

Raji lymphoma cells = experiment: Subcutaneous Raji lymphoma xenograft in NOD/SCID mice; format: in vivo, human
Protocol: as §1, §2

OCI-LY-19 lymphoma cells = experiment: Subcutaneous OCI-LY-19 lymphoma xenograft in NOD/SCID mice; format: in vivo, human; conditions: OCI-LY-19, PG545 IP 20 mg/kg once weekly from one day after inoculation
Protocol: as §1, §2

[3] = test system: ESb mouse T-lymphoma cells; experiment: ESb T-lymphoma spontaneous liver metastasis and survival; format: in vivo; conditions: PG545 20 mg/kg once a week
Protocol: as §3
FIG. 3A. HEK 293 cells were incubated with latent 65 kDa (upper panel) or GS3 constitutively active heparanase (1 μg/ml; third panel) and the indicated mAbs (10 μg/ml). The cell medium was aspirated at the time designated and cell lysates were subjected to immunoblotting applying anti-heparanase antibody (upper and third panels). […] Heparanase-transfected 293 cells were grown with control mouse IgM or mAb 9E8 for two days. Cells were then fixed with methanol and subjected to immunofluorescent staining applying anti heparanase antibody (second panel) or lysed and subjected to immunoblotting applying anti-heparanase antibody (fourth panel). Purified recombinant active heparanase (200 ng) was pre-incubated with control mouse IgM ( ? ), mAb 8A5 ( ? ), mAb 9E8 ( ? ), all at 2 μg/ml, for 2 h in serum-free RPMI medium on ice. The mixture was then applied onto ^35S-labeled ECM-coated dishes and heparanase activity was determined as described above (lower panel). FIG. 3B, C. […] Quantification of the extent of CD45 staining is shown graphically in the lower panel. […]

[4] = prior art; cited from earlier work
heparanase = target: T1, heparanase (Homo sapiens, UniProt Q9Y251); conditions: prior art; cited from earlier work
T1 sequence (Q9Y251 36-543): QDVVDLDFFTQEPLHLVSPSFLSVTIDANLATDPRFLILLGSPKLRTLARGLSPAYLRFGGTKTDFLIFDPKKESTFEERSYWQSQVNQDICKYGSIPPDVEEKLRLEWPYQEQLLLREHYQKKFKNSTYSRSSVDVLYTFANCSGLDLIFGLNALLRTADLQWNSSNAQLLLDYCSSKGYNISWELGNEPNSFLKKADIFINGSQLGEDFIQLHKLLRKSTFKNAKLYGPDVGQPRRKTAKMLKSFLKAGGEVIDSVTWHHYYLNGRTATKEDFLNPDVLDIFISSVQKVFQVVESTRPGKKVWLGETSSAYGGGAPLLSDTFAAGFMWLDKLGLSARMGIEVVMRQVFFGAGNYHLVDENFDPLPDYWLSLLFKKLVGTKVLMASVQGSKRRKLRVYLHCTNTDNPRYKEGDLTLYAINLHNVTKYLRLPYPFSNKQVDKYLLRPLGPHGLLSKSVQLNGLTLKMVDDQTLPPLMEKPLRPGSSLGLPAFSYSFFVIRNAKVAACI

Compound	growth of tumor xenografts (tumor weight) (SU-DHL-6 lymphoma cells)	blood vessel density (CD31) in bone marrow (Raji-luciferase cells)	expansion of Raji-luciferase cells in the bone marrow (Raji-luciferase cells; IVIS)	growth of tumor xenografts (tumor weight) (Daudi lymphoma cells)	inhibition of tumor xenograft growth when treated once lesions became palpable ([1]; PG545 20 mg/kg once a week (FIG. 1D))	dose dependence of xenograft growth attenuation ([1]; indicated concentrations mg/kg once a week (FIG. 1C))	growth of tumor xenografts (tumor weight) (Ramos lymphoma cells)	growth of tumor xenografts [2]	growth of tumor xenografts (tumor weight) (Raji lymphoma cells; Raji, PG545 IP 20 mg/kg once weekly from one day after inoculation)	heparanase activity in tumor xenograft extracts (Raji lymphoma cells; extracts of Raji xenografts on sulfate labelled ECM)	growth of tumor xenografts (tumor weight) (OCI-LY-19 lymphoma cells)	survival of mice ([3]; ESb s.c. in NOD/SCID mice)	liver metastasis ([3]; ESb)	interaction with heparin and HS [4]	inhibition of heparanase activity (heparanase)
CC(C)CCC[C@@H](C)[C@H]1CC[C@H]2[C@@H]3CC[C@H]4C[C@@H](O[C@@H]5O[C@H](COS(=O)(=O)O)[C@@H](O[C@H]6O[C@H](COS(=O)(=O)O)[C@@H](O[C@H]7O[C@H](COS(=O)(=O)O)[C@@H](O[C@H]8O[C@H](COS(=O)(=O)O)[C@@H](OS(=O)(=O)O)[C@H](OS(=O)(=O)O)[C@H]8OS(=O)(=O)O)[C@H](OS(=O)(=O)O)[C@H]7OS(=O)(=O)O)[C@H](OS(=O)(=O)O)[C@H]6OS(=O)(=O)O)[C@H](OS(=O)(=O)O)[C@H]5OS(=O)(=O)O)CC[C@]4(C)[C@H]3CC[C@]12C [PG545]	markedly attenuated	decreased blood vessel density	markedly reduced	markedly attenuated	significant inhibition	dose-dependent manner	markedly attenuated	not inhibited	markedly attenuated	inhibits heparanase activity	markedly attenuated	prolonged	reduced liver metastasis		
KKFKNSTYSRSSVD [KKDC]														high affinity	inhibits heparanase enzymatic activity
